{
  "source": "paper PMC9817970",
  "about": "(Cancers, 2022)",
  "assay_in_all_cases": "Kinase panel profiling",
  "format_in_all_cases": "biochemical",
  "conditions_in_all_cases": "10 μM ATP",
  "key": {"MEKK1": {"target": "T1, MEKK1 (Homo sapiens, UniProt Q13233)", "T1 construct": "purchased Reaction Biology Corp", "description": "(§1) Kinase panel profiling was conducted by Reaction Biology Corp. (San Diego, CA, USA). A single dose (1.0 μM) of 6r was tested against 371 recombinant human kinases in the presence of 10 μM ATP."}, "CDK18/cyclin Y (PCTK3)": {"target": "T2, CDK18/cyclin Y (PCTK3) (Homo sapiens, UniProt Q07002)", "T2 construct": "purchased Reaction Biology Corp", "description": "as §1"}, "CK1g2": {"target": "T3, CK1g2 (Homo sapiens, UniProt P78368)", "T3 construct": "purchased Reaction Biology Corp", "description": "as §1"}, "CHK2": {"target": "T4, CHK2 (Homo sapiens, UniProt O96017)", "T4 construct": "purchased Reaction Biology Corp", "description": "as §1"}, "PLK1": {"target": "T5, PLK1 (Homo sapiens, UniProt P53350)", "T5 construct": "purchased Reaction Biology Corp", "description": "as §1"}, "TTBK2": {"target": "T6, TTBK2 (Homo sapiens, UniProt Q6IQ55)", "T6 construct": "purchased Reaction Biology Corp", "description": "as §1"}, "DCAMKL1": {"target": "T7, DCAMKL1 (Homo sapiens, UniProt O15075)", "T7 construct": "purchased Reaction Biology Corp", "description": "as §1"}, "AXL": {"target": "T8, AXL (Homo sapiens, UniProt P30530)", "T8 construct": "purchased Reaction Biology Corp", "description": "as §1"}, "TSSK2": {"target": "T9, TSSK2 (Homo sapiens, UniProt Q96PF2)", "T9 construct": "purchased Reaction Biology Corp", "description": "as §1"}, "MNK2": {"target": "T10, MNK2 (Homo sapiens, UniProt Q9HBH9)", "T10 construct": "purchased Reaction Biology Corp", "description": "as §1"}, "CAMK4": {"target": "T11, CAMK4 (Homo sapiens, UniProt Q16566)", "T11 construct": "purchased Reaction Biology Corp", "description": "as §1"}, "RIPK2": {"target": "T12, RIPK2 (Homo sapiens, UniProt O43353)", "T12 construct": "purchased Reaction Biology Corp", "description": "as §1"}, "TYRO3/SKY": {"target": "T13, TYRO3/SKY (Homo sapiens, UniProt Q06418)", "T13 construct": "purchased Reaction Biology Corp", "description": "as §1"}, "STK33": {"target": "T14, STK33 (Homo sapiens, UniProt Q9BYT3)", "T14 construct": "purchased Reaction Biology Corp", "description": "as §1"}, "SIK3": {"target": "T15, SIK3 (Homo sapiens, UniProt Q9Y2K2)", "T15 construct": "purchased Reaction Biology Corp", "T15 sequence (Q9Y2K2 whole entry)": "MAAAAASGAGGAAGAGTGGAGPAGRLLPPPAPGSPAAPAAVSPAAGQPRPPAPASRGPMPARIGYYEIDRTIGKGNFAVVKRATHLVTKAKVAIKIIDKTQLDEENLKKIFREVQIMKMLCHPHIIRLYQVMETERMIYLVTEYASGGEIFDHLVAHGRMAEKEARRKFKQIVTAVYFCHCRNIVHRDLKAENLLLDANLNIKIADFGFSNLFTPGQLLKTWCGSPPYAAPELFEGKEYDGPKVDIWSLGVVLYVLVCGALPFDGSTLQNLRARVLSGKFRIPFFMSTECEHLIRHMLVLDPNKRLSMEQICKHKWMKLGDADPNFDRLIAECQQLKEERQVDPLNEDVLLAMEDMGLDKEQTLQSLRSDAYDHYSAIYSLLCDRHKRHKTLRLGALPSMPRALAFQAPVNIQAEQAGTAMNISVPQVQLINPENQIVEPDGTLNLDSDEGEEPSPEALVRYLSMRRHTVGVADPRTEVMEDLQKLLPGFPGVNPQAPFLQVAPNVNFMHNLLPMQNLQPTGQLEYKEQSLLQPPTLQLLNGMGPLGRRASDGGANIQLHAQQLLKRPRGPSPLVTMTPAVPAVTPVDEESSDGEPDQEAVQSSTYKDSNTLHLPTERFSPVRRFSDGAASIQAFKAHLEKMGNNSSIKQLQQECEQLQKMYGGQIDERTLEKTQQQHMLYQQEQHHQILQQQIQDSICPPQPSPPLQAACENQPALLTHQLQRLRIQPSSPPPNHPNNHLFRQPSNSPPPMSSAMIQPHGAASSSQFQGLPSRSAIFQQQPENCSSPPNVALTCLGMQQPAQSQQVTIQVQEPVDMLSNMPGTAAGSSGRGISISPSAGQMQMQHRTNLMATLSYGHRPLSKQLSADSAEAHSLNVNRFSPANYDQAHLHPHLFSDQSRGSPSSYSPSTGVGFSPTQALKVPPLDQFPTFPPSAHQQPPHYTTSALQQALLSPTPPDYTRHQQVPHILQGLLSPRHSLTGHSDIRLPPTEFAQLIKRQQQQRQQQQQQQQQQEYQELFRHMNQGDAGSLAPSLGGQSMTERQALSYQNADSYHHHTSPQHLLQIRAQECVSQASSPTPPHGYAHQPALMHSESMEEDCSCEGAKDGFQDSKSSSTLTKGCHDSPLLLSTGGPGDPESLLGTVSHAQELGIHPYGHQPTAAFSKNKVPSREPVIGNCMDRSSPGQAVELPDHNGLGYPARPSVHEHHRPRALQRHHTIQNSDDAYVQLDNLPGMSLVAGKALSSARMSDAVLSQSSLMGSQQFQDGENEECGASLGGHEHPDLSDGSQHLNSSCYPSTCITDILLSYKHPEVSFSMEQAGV", "description": "as §1"}, "BRSK2": {"target": "T16, BRSK2 (Homo sapiens, UniProt Q8IWQ3)", "T16 construct": "purchased Reaction Biology Corp", "description": "as §1"}, "ULK1": {"target": "T17, ULK1 (Homo sapiens, UniProt O75385)", "T17 construct": "purchased Reaction Biology Corp", "description": "as §1"}, "PLK3": {"target": "T18, PLK3 (Homo sapiens, UniProt Q9H4B4)", "T18 construct": "purchased Reaction Biology Corp", "description": "as §1"}, "TLK2": {"target": "T19, TLK2 (Homo sapiens, UniProt Q86UE8)", "T19 construct": "purchased Reaction Biology Corp", "description": "as §1"}, "CAMK2g": {"target": "T20, CAMK2g (Homo sapiens, UniProt Q13555)", "T20 construct": "purchased Reaction Biology Corp", "description": "as §1"}, "ALK5/TGFBR1": {"target": "T21, ALK5/TGFBR1 (Homo sapiens, UniProt P36897)", "T21 construct": "purchased Reaction Biology Corp", "description": "as §1"}, "FER": {"target": "T22, FER (Homo sapiens, UniProt P16591)", "T22 construct": "purchased Reaction Biology Corp", "description": "as §1"}, "MAPKAPK2": {"target": "T23, MAPKAPK2 (Homo sapiens, UniProt P49137)", "T23 construct": "purchased Reaction Biology Corp", "description": "as §1"}, "EPHB1": {"target": "T24, EPHB1 (Homo sapiens, UniProt P54762)", "T24 construct": "purchased Reaction Biology Corp", "description": "as §1"}, "GSK3b": {"target": "T25, GSK3b (Homo sapiens, UniProt P49841)", "T25 construct": "purchased Reaction Biology Corp", "T25 sequence (P49841 whole entry)": "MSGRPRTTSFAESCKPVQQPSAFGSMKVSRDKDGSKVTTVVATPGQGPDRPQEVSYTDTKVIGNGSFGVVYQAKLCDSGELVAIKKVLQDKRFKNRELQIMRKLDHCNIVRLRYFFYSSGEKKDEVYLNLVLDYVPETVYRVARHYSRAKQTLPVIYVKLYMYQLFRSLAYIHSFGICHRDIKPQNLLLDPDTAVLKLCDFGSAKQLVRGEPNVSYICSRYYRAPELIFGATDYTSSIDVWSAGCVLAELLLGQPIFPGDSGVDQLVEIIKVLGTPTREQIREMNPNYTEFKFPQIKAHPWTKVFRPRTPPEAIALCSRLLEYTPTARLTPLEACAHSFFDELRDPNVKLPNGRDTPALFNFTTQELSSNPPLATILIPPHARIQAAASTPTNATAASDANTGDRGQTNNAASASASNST", "description": "as §1"}, "PKG2/PRKG2": {"target": "T26, PKG2/PRKG2 (Homo sapiens, UniProt Q13237)", "T26 construct": "purchased Reaction Biology Corp", "description": "as §1"}, "PKG1b": {"target": "T27, PKG1b (Homo sapiens, UniProt Q13976)", "T27 construct": "purchased Reaction Biology Corp", "description": "as §1"}, "MEKK3": {"target": "T28, MEKK3 (Homo sapiens, UniProt Q99759)", "T28 construct": "purchased Reaction Biology Corp", "description": "as §1"}, "PAK4": {"target": "T29, PAK4 (Homo sapiens, UniProt O96013)", "T29 construct": "purchased Reaction Biology Corp", "description": "as §1"}, "CAMK1g": {"target": "T30, CAMK1g (Homo sapiens, UniProt Q96NX5)", "T30 construct": "purchased Reaction Biology Corp", "T30 sequence (Q96NX5 whole entry)": "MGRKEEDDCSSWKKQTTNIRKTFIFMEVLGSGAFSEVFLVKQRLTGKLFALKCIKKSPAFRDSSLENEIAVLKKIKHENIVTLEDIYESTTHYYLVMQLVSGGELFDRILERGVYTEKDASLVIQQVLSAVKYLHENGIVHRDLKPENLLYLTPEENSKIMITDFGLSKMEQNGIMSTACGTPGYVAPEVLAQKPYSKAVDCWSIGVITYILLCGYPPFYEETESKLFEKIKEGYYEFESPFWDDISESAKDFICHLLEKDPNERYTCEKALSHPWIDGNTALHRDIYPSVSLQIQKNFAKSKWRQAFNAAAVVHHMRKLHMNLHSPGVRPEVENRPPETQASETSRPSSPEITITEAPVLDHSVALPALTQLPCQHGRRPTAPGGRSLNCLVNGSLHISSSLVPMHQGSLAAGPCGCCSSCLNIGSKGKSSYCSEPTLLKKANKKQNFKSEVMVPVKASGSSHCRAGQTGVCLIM", "description": "as §1"}, "PHKg2": {"target": "T31, PHKg2 (Homo sapiens, UniProt P15735)", "T31 construct": "purchased Reaction Biology Corp", "description": "as §1"}, "CLK1": {"target": "T32, CLK1 (Homo sapiens, UniProt P49759)", "T32 construct": "purchased Reaction Biology Corp", "description": "as §1"}, "PKMYT1": {"target": "T33, PKMYT1 (Homo sapiens, UniProt Q99640)", "T33 construct": "purchased Reaction Biology Corp", "T33 sequence (Q99640 whole entry)": "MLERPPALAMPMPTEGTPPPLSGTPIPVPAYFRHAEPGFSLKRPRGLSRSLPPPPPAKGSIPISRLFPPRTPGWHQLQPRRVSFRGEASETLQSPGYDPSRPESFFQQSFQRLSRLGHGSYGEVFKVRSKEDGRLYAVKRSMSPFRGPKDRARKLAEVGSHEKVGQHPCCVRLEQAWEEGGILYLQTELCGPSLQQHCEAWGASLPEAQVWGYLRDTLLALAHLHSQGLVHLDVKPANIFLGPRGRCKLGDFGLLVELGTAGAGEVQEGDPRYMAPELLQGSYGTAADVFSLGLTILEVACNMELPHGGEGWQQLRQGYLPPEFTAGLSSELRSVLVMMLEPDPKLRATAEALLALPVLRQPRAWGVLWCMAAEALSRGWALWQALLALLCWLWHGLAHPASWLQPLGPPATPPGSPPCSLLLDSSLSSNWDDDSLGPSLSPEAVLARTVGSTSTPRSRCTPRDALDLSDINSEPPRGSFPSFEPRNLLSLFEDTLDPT", "description": "as §1"}, "MYLK3": {"target": "T34, MYLK3 (Homo sapiens, UniProt Q32MK0)", "T34 construct": "purchased Reaction Biology Corp", "description": "as §1"}, "MARK1": {"target": "T35, MARK1 (Homo sapiens, UniProt Q9P0L2)", "T35 construct": "purchased Reaction Biology Corp", "T35 sequence (Q9P0L2 whole entry)": "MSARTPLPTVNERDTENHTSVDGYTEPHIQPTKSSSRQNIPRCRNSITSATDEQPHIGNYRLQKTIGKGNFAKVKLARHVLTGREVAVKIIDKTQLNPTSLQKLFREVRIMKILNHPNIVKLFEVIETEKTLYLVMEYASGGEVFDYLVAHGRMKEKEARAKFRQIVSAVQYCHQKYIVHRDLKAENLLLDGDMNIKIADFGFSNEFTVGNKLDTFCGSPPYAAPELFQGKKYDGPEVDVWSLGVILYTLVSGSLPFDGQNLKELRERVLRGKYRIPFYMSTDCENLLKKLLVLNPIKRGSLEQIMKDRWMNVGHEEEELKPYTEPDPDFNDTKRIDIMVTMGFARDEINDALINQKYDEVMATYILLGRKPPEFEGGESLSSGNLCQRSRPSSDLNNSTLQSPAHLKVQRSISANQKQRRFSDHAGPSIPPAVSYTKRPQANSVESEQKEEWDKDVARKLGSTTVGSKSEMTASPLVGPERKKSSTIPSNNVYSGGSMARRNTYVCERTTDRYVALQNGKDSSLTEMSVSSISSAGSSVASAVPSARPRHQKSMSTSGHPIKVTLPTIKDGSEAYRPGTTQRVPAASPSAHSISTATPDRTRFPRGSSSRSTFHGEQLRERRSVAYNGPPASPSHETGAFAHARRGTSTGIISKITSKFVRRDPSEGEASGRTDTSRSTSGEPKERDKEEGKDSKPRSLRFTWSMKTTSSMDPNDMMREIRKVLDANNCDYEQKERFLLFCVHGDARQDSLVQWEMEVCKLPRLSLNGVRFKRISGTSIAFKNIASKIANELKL", "description": "as §1"}, "IKKe/IKBKE": {"target": "T36, IKKe/IKBKE (Homo sapiens, UniProt Q14164)", "T36 construct": "purchased Reaction Biology Corp", "description": "as §1"}, "LIMK1": {"target": "T37, LIMK1 (Homo sapiens, UniProt P53667)", "T37 construct": "purchased Reaction Biology Corp", "description": "as §1"}, "MEKK6": {"target": "T38, MEKK6 (Homo sapiens, UniProt O95382)", "T38 construct": "purchased Reaction Biology Corp", "description": "as §1"}, "EPHB3": {"target": "T39, EPHB3 (Homo sapiens, UniProt P54753)", "T39 construct": "purchased Reaction Biology Corp", "T39 sequence (P54753 34-998)": "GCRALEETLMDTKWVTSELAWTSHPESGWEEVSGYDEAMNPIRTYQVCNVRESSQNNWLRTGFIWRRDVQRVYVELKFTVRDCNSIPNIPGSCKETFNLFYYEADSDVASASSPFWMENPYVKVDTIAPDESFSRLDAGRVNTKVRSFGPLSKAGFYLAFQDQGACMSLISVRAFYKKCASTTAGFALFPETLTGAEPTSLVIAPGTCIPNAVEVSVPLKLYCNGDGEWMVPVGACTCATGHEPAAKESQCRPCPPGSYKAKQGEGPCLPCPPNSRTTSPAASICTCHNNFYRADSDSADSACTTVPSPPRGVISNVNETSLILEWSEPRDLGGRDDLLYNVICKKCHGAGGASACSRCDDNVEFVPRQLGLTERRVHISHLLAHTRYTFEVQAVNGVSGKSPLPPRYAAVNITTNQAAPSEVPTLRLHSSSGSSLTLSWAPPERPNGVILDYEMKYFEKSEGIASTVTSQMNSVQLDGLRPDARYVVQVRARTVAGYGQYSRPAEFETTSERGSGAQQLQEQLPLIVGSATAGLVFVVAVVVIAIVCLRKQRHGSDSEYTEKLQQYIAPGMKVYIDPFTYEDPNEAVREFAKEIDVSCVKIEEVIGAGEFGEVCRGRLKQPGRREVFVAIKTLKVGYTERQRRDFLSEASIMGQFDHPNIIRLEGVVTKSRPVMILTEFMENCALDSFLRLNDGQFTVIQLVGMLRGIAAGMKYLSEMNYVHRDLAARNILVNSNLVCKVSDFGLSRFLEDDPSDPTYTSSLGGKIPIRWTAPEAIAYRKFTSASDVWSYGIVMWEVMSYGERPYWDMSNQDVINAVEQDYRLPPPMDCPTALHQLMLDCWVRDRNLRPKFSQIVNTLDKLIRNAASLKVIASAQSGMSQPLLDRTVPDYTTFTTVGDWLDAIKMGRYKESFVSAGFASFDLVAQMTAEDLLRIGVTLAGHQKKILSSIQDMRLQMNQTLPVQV", "description": "as §1"}, "STK38/NDR1": {"target": "T40, STK38/NDR1 (Homo sapiens, UniProt Q15208)", "T40 construct": "purchased Reaction Biology Corp", "description": "as §1"}, "FGR": {"target": "T41, FGR (Homo sapiens, UniProt P09769)", "T41 construct": "purchased Reaction Biology Corp", "description": "as §1"}, "KSR1": {"target": "T42, KSR1 (Homo sapiens, UniProt Q8IVT5)", "T42 construct": "purchased Reaction Biology Corp", "description": "as §1"}, "CDK5/P25": {"target": "T43, CDK5/P25 (Homo sapiens, UniProt Q00535)", "T43 construct": "purchased Reaction Biology Corp", "T43 sequence (Q00535 whole entry)": "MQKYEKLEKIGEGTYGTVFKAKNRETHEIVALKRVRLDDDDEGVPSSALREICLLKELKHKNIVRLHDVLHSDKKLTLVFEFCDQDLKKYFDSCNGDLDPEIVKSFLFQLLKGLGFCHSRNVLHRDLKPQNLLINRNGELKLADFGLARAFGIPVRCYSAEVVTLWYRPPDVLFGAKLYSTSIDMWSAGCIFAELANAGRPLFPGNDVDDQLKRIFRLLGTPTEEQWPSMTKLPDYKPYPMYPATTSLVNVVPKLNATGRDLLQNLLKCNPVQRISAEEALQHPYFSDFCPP", "T43 sequence (Q15078 99-307 partner limits assumed)": "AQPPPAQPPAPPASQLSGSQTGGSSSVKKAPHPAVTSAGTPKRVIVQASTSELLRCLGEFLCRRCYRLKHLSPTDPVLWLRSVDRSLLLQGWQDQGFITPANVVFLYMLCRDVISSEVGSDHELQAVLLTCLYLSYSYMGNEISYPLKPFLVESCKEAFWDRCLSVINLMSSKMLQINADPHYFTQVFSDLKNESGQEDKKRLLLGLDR", "description": "as §1"}},
  "data": [
    {"smiles": "Cc1ccc(NC(=O)c2ccc(CN3CCN(C)CC3)c(C(F)(F)F)c2)cc1-c1cnc2sc(N)nc2c1", "note": "[6r]", "values": [
      {"measurement": "inhibition at 1 µM", "setting": "MEKK1", "result": 0, "unit": "%"},
      {"measurement": "inhibition at 1 µM", "setting": "CDK18/cyclin Y (PCTK3)", "result": 5.1, "unit": "%"},
      {"measurement": "inhibition at 1 µM", "setting": "CK1g2", "result": 38.9, "unit": "%"},
      {"measurement": "inhibition at 1 µM", "setting": "CHK2", "result": 4.8, "unit": "%"},
      {"measurement": "inhibition at 1 µM", "setting": "PLK1", "result": 0, "unit": "%"},
      {"measurement": "inhibition at 1 µM", "setting": "TTBK2", "result": 23.2, "unit": "%"},
      {"measurement": "inhibition at 1 µM", "setting": "DCAMKL1", "result": 1.5, "unit": "%"},
      {"measurement": "inhibition at 1 µM", "setting": "AXL", "result": 15.8, "unit": "%"},
      {"measurement": "inhibition at 1 µM", "setting": "TSSK2", "result": 0, "unit": "%"},
      {"measurement": "inhibition at 1 µM", "setting": "MNK2", "result": 0, "unit": "%"},
      {"measurement": "inhibition at 1 µM", "setting": "CAMK4", "result": 3.2, "unit": "%"},
      {"measurement": "inhibition at 1 µM", "setting": "RIPK2", "result": 20.6, "unit": "%"},
      {"measurement": "inhibition at 1 µM", "setting": "TYRO3/SKY", "result": 14.6, "unit": "%"},
      {"measurement": "inhibition at 1 µM", "setting": "STK33", "result": 9.5, "unit": "%"},
      {"measurement": "inhibition at 1 µM", "setting": "SIK3", "result": 0, "unit": "%"},
      {"measurement": "inhibition at 1 µM", "setting": "BRSK2", "result": 7.2, "unit": "%"},
      {"measurement": "inhibition at 1 µM", "setting": "ULK1", "result": 3.7, "unit": "%"},
      {"measurement": "inhibition at 1 µM", "setting": "PLK3", "result": 4.8, "unit": "%"},
      {"measurement": "inhibition at 1 µM", "setting": "TLK2", "result": 0, "unit": "%"},
      {"measurement": "inhibition at 1 µM", "setting": "CAMK2g", "result": 0, "unit": "%"},
      {"measurement": "inhibition at 1 µM", "setting": "ALK5/TGFBR1", "result": 0, "unit": "%"},
      {"measurement": "inhibition at 1 µM", "setting": "FER", "result": 0, "unit": "%"},
      {"measurement": "inhibition at 1 µM", "setting": "MAPKAPK2", "result": 12.5, "unit": "%"},
      {"measurement": "inhibition at 1 µM", "setting": "EPHB1", "result": 65.7, "unit": "%"},
      {"measurement": "inhibition at 1 µM", "setting": "GSK3b", "result": 12.9, "unit": "%"},
      {"measurement": "inhibition at 1 µM", "setting": "PKG2/PRKG2", "result": 9.1, "unit": "%"},
      {"measurement": "inhibition at 1 µM", "setting": "PKG1b", "result": 3.3, "unit": "%"},
      {"measurement": "inhibition at 1 µM", "setting": "MEKK3", "result": 4.9, "unit": "%"},
      {"measurement": "inhibition at 1 µM", "setting": "PAK4", "result": 8.6, "unit": "%"},
      {"measurement": "inhibition at 1 µM", "setting": "CAMK1g", "result": 20.8, "unit": "%"},
      {"measurement": "inhibition at 1 µM", "setting": "PHKg2", "result": 5, "unit": "%"},
      {"measurement": "inhibition at 1 µM", "setting": "CLK1", "result": 0, "unit": "%"},
      {"measurement": "inhibition at 1 µM", "setting": "PKMYT1", "result": 10, "unit": "%"},
      {"measurement": "inhibition at 1 µM", "setting": "MYLK3", "result": 0, "unit": "%"},
      {"measurement": "inhibition at 1 µM", "setting": "MARK1", "result": 0, "unit": "%"},
      {"measurement": "inhibition at 1 µM", "setting": "IKKe/IKBKE", "result": 2, "unit": "%"},
      {"measurement": "inhibition at 1 µM", "setting": "LIMK1", "result": 87.2, "unit": "%"},
      {"measurement": "inhibition at 1 µM", "setting": "MEKK6", "result": 8, "unit": "%"},
      {"measurement": "inhibition at 1 µM", "setting": "EPHB3", "result": 42.5, "unit": "%"},
      {"measurement": "inhibition at 1 µM", "setting": "STK38/NDR1", "result": 17.1, "unit": "%"},
      {"measurement": "inhibition at 1 µM", "setting": "FGR", "result": 87.7, "unit": "%"},
      {"measurement": "inhibition at 1 µM", "setting": "KSR1", "result": 5.5, "unit": "%"},
      {"measurement": "inhibition at 1 µM", "setting": "CDK5/P25", "result": 8.7, "unit": "%"}
    ]}
  ]
}
